Non-standard residues stand in square brackets, D forms with d. No end group written: not given here.
Columns and labels:
[1] = target: T1, δ receptors (Rattus norvegicus, UniProt P33533); experiment: Radioreceptor assay selective for δ receptors ([3H]-naltrindole, rat brain homogenates); format: binding; details: ratio of δ IC50 to µ IC50
T1 construct: performed using rat brain homogenates as above; tissue Harlan Bioproducts for Science; host or cells: rat brain crude membrane homogenate
Procedure: Radioreceptor assays selective for δ receptors were performed using rat brain homogenates as above and [^3H]-naltrindole (0.5 nM, specific activity 34.7 Ci/mmol) as radioligand in Tris buffer containing 100 µM phenylmethylsulfonyl fluoride (PMSF), 5 mM MgCl2 and 1 mg/ml bovine serum albumin (BSA), pH 7.4. Samples were incubated for 2.5 hr. Standard curves were prepared using 0.10-3200 nM [^3H]-D-Pen2, Pen5]-enkephalin ([^3H]-DPDPE).

[2] = target: T2, κ receptors (Cavia porcellus, UniProt P41144); experiment: Radioreceptor assay selective for κ receptors ([3H]-U69,593, guinea pig brain homogenates); format: binding; details: ratio of κ IC50 to µ IC50
T2 construct: tissue homogenates prepared from guinea pig brains (cortex and cerebellum); tissue Harlan Bioproducts for Science; host or cells: guinea pig brain (cortex and cerebellum) homogenate
T2 sequence (P41144 whole entry): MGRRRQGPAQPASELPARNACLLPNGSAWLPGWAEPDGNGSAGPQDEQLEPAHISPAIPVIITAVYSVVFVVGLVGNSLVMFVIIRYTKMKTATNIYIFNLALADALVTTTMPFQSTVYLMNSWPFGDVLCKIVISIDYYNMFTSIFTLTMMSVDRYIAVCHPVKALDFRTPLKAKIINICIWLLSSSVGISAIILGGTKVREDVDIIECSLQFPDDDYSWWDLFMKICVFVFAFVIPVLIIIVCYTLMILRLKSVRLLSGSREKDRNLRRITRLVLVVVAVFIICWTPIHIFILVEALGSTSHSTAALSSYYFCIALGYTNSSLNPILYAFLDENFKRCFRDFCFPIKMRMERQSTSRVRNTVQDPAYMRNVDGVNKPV
Procedure: Assays selective for κ receptors were carried out using [^3H]-U69,593 (3 nM, specific activity 62 Ci/mmol) as the radioligand and tissue homogenates prepared from guinea pig brains (cortex and cerebellum) using Tris buffer containing 100 µM PMSF, 5 mM MgCl2 and 1 mg/ml BSA, pH 7.4. Sample tubes were incubated for 2.5 hr.

[3] = test system: MU RECEPTOR; experiment: Agonist or antagonist activity by either the adenylyl cyclase assay or the GPI assay (not stated which)

T1 sequence (P33533 whole entry): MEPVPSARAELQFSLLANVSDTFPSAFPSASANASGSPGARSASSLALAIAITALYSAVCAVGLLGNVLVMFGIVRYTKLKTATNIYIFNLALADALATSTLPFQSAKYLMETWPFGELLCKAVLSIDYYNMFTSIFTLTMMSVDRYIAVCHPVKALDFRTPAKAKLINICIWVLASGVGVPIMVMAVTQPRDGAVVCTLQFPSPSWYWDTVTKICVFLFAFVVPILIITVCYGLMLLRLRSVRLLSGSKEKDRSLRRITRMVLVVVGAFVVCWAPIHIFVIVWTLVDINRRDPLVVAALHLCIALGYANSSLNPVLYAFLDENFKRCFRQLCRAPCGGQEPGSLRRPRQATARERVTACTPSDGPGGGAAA

| Substance | δ/µ [1] | κ/µ [2] | AGONIST OR ANTAGONIST [3] |
| --- | --- | --- | --- |
| [D-Ala^2,MePhe^4,Gly-ol^5]enkephalin [DAMGO] | 253 | 844 |  |
| [dI][dM][dT][dW]G[dP]-NH2 [SEQ ID NO. 130] |  |  | Agonist |

Source: EP0853484B1, “NOVEL MU OPIOID RECEPTOR LIGANDS: AGONISTS AND ANTAGONISTS” (priority 1995, dated 1996)
